Assay [1] concerns the target T1, Dimer of Gag-Pol polyprotein [489-587] (Human immunodeficiency virus 1, UniProt P12497).
T1 construct: 489-587
Kind of assay: Protease Inhibition Assay. The settings on record: pH 5.5; 22 °C. The text has this:
(§1) In the presence of HIV-l protease, the substrate is rapidly cleaved into two parts. The biotinylated amino terminal fragment binds to the avidin Pandex beads while the FITC-containing carboxy1 terminal fragment is removed through the membrane.

Assay [2] addresses T2, Gag-Pol polyprotein [489-587] (Human immunodeficiency virus 1, UniProt P04585).
T2 construct: 489-587
In words: Protease Inhibition Assay.
From the text: as §1

The structures appear in SMILES notation.

In the case of `CC(C)(C)NC(=O)[C@@H]1C[C@@H]2CCCC[C@@H]2CN1C[C@@H](O)[C@H](Cc1ccccc1)NC(=O)[C@@H](C[S+]([O-])c1ccc2ccccc2c1)NS(C)(=O)=O` (stereo not given in full), the IC50 in assay [1] and in assay [2] was 0.4 nM throughout.
Consider `CC(C)CN(C[C@@H](O)[C@H](Cc1ccccc1)NC(=O)[C@@H](CSc1ccc2ccccc2c1)NS(C)(=O)=O)C(=O)NC(C)(C)C` [(2S)-N-[(2S,3R)-4-[(tert-butylcarbamoyl)(2-methylpropyl)amino]-3-hydroxy-1-phenylbutan-2-yl]-2-methanesulfonamido-3-(naphthalen-2-ylsulfanyl)propanamide], for which the IC50 in assay [1] and in assay [2] was 50 nM each time.
As for `CC(C)CN(C[C@@H](O)[C@H](Cc1ccccc1)NC(=O)[C@@H](C[S+]([O-])c1ccc2ccccc2c1)NS(C)(=O)=O)C(=O)NC(C)(C)C` (stereo partly drawn) [(2S)-N-[(2S,3R)-4-[(tert-butylcarbamoyl)(2-methylpropyl)amino]-3-hydroxy-1-phenylbutan-2-yl]-2-methanesulfonamido-3-(naphthalene-2-sulfinyl)propanamide], the IC50 in assay [1] and in assay [2] was 2.1 nM each time.
For the molecule `CC(C)CN(C[C@@H](O)[C@H](Cc1ccccc1)NC(=O)[C@@H](CS(=O)(=O)c1ccc(F)cc1)NS(C)(=O)=O)C(=O)NC(C)(C)C` [(2S)-N-[(2S,3R)-4-[(tert-butylcarbamoyl)(2-methylpropyl)amino]-3-hydroxy-1-phenylbutan-2-yl]-3-[(4-fluorobenzene)sulfonyl]-2-methanesulfonamidopropanamide], the IC50 in assay [1] and in assay [2] was 10 nM in each case.
Consider `CC(C)CN(C[C@@H](O)[C@H](Cc1ccccc1)NC(=O)[C@@H](CSc1ccc(F)cc1)NS(C)(=O)=O)C(=O)NC(C)(C)C` [(2S)-N-[(2S,3R)-4-[(tert-butylcarbamoyl)(2-methylpropyl)amino]-3-hydroxy-1-phenylbutan-2-yl]-3-[(4-fluorophenyl)sulfanyl]-2-methanesulfonamidopropanamide], for which the concentration for half-maximal inhibition (IC50) in assay [1] and in assay [2] was 85 nM throughout.
As to `CC(=O)N[C@H](CSCc1ccccc1)C(=O)N[C@@H](Cc1ccccc1)[C@H](O)CN1C[C@H]2CCCC[C@H]2C[C@H]1C(=O)NC(C)(C)C` [(3S,4aS,8aS)-2-[(2R,3S)-3-[(2S)-3-(benzylsulfanyl)-2-acetamidopropanamido]-2-hydroxy-4-phenylbutyl]-N-tert-butyl-decahydroisoquinoline-3-carboxamide], the IC50 in assay [1] and in assay [2] was 6 nM throughout.
Consider `CC(C)(C)NC(=O)[C@@H]1C[C@@H]2CCCC[C@@H]2CN1C[C@@H](O)[C@H](Cc1ccccc1)NC(=O)[C@@H](CSc1ccc2ccccc2c1)NS(C)(=O)=O` [(3S,4aS,8aS)-N-tert-butyl-2-[(2R,3S)-2-hydroxy-3-[(2S)-2-methanesulfonamido-3-(naphthalen-2-ylsulfanyl)propanamido]-4-phenylbutyl]-decahydroisoquinoline-3-carboxamide], for which the IC50 in assay [1] and in assay [2] was 5.1 nM each time.
As to `CC(C)(C)NC(=O)[C@@H]1C[C@@H]2CCCC[C@@H]2CN1C[C@@H](O)[C@H](Cc1ccccc1)NC(=O)[C@@H](CS(=O)(=O)c1ccc2ccccc2c1)NS(C)(=O)=O` [(3S,4aS,8aS)-N-tert-butyl-2-[(2R,3S)-2-hydroxy-3-[(2S)-2-methanesulfonamido-3-(naphthalene-2-sulfonyl)propanamido]-4-phenylbutyl]-decahydroisoquinoline-3-carboxamide], the IC50 in assay [1] and in assay [2] was 0.5 nM throughout.
With `CC(=O)N[C@H](CS(=O)(=O)c1ccc2ccccc2c1)C(=O)N[C@@H](Cc1ccccc1)[C@H](O)CN1C[C@H]2CCCC[C@H]2C[C@H]1C(=O)NC(C)(C)C` [(3S,4aS,8aS)-N-tert-butyl-2-[(2R,3S)-3-[(2S)-2-acetamido-3-(naphthalene-2-sulfonyl)propanamido]-2-hydroxy-4-phenylbutyl]-decahydroisoquinoline-3-carboxamide], the IC50 in assay [1] and in assay [2] was 1.6 nM each time.
With `CC(=O)N[C@H](CS(=O)(=O)c1cccc2cccnc12)C(=O)N[C@@H](Cc1ccccc1)[C@H](O)CN1C[C@H]2CCCC[C@H]2C[C@H]1C(=O)NC(C)(C)C` [(3S,4aS,8aS)-N-tert-butyl-2-[(2R,3S)-3-[(2S)-2-acetamido-3-(quinoline-8-sulfonyl)propanamido]-2-hydroxy-4-phenylbutyl]-decahydroisoquinoline-3-carboxamide], the half-inhibitory concentration (IC50) in assay [1] and in assay [2] was 1.7 nM in each case.
In the case of `CC(C)(C)NC(=O)[C@@H]1C[C@@H]2CCCC[C@@H]2CN1C[C@@H](O)[C@H](Cc1ccccc1)NC(=O)[C@@H](C[S+]([O-])c1ccc(F)cc1)NS(C)(=O)=O` (stereo partly drawn) [(3S,4aS,8aS)-N-tert-butyl-2-[(2R,3S)-3-[(2S)-3-[(4-fluorobenzene)sulfinyl]-2-methanesulfonamidopropanamido]-2-hydroxy-4-phenylbutyl]-decahydroisoquinoline-3-carboxamide], the IC50 in assay [1] and in assay [2] was 0.6 nM in each case.
`CC(C)(C)NC(=O)[C@@H]1C[C@@H]2CCCC[C@@H]2CN1C[C@@H](O)[C@H](Cc1ccccc1)NC(=O)[C@@H](CSc1ccc(F)cc1)NS(C)(=O)=O` [(3S,4aS,8aS)-N-tert-butyl-2-[(2R,3S)-3-[(2S)-3-[(4-fluorophenyl)sulfanyl]-2-methanesulfonamidopropanamido]-2-hydroxy-4-phenylbutyl]-decahydroisoquinoline-3-carboxamide]: the IC50 in assay [1] and in assay [2] was 24 nM in each case.
For `CC(C)(C)NC(=O)[C@@H]1C[C@@H]2SCC[C@@H]2CN1C[C@@H](O)[C@H](CSc1ccccc1)NC(=O)[C@@H](CS(=O)(=O)c1ccc2ccccc2c1)NC(=O)C(F)(F)F` [(3aR,6S,7aS)-N-tert-butyl-5-[(2R,3R)-2-hydroxy-3-[(2S)-3-(naphthalene-2-sulfonyl)-2-(2,2,2-trifluoroacetamido)propanamido]-4-(phenylsulfanyl)butyl]-octahydrothieno[3,2-c]pyridine-6-carboxamide], the concentration for half-maximal inhibition (IC50) in assay [1] and in assay [2] was 1.8 nM throughout.
Regarding `CC(=O)N[C@H](CS(=O)(=O)c1ccc(F)cc1)C(=O)N[C@@H](CSc1ccccc1)[C@H](O)CN1C[C@H]2CCS[C@H]2C[C@H]1C(=O)NC(C)(C)C` [(3aR,6S,7aS)-N-tert-butyl-5-[(2R,3R)-3-[(2S)-2-acetamido-3-[(4-fluorobenzene)sulfonyl]propanamido]-2-hydroxy-4-(phenylsulfanyl)butyl]-octahydrothieno[3,2-c]pyridine-6-carboxamide], the half-maximal inhibitory concentration (IC50) in assay [1] and in assay [2] was 1.8 nM each time.
For the molecule `CC(C)(C)NC(=O)[C@@H]1C[C@@H]2SCC[C@@H]2CN1C[C@@H](O)[C@H](CSc1ccccc1)NC(=O)[C@@H](CS(=O)(=O)c1ccc(F)cc1)NC(=O)C(F)(F)F` [(3aR,6S,7aS)-N-tert-butyl-5-[(2R,3R)-3-[(2S)-3-[(4-fluorobenzene)sulfonyl]-2-(2,2,2-trifluoroacetamido)propanamido]-2-hydroxy-4-(phenylsulfanyl)butyl]-octahydrothieno[3,2-c]pyridine-6-carboxamide], the IC50 in assay [1] and in assay [2] was 10 nM each time.

Values taken from BindingDB's records for doi:10.7270/Q22F7KMG (Eli Lilly, 1995).
